Tests used:
Assay in all cases: cells
LOX IMVI = type: functional, cell-based, Homo sapiens; details: Homo sapiens, LOX IMVI
Description: SANGER: Inhibition of human LOXIMVI cell growth in a cell viability assay.

IST-SL1 = type: functional, cell-based, Homo sapiens; details: Homo sapiens, IST-SL1;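 also: growth inhibition of human IST-SL1 cells, read out with a cell viability assay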
Description: SANGER: Inhibition of human IST-SL1 cell growth in a cell viability assay.

HCC1187 = type: functional, cell-based, Homo sapiens; details: Homo sapiens, HCC1187;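 also: growth inhibition of HCC1187 cells, read out with a cell viability assay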
Description: SANGER: Inhibition of human HCC1187 cell growth in a cell viability assay.

NB10 = type: functional, cell-based, Homo sapiens; details: Homo sapiens, NB10;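 also: growth inhibition of NB10 cells, read out by a cell viability assay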
Description: SANGER: Inhibition of human NB10 cell growth in a cell viability assay.

NCI-H1648 = type: functional, cell-based, Homo sapiens; details: Homo sapiens, NCI-H1648;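 also: cell viability assay measuring inhibition of NCI-H1648 cell growth, from the Sanger screening data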
Description: SANGER: Inhibition of human NCI-H1648 cell growth in a cell viability assay.

MN-60 = type: functional, cell-based, Homo sapiens; details: Homo sapiens, MN-60;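 also: growth inhibition of the MN-60 cell line, determined with a cell viability assay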
Description: SANGER: Inhibition of human MN-60 cell growth in a cell viability assay.

P30-OHK = type: functional, cell-based, Homo sapiens; details: Homo sapiens, P30-OHK;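 also: growth inhibition of the P30-OHK cell line, read out with a cell viability assay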
Description: SANGER: Inhibition of human P30-OHK cell growth in a cell viability assay.

COR-L88 = type: functional, cell-based, Homo sapiens; details: Homo sapiens, COR-L88;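 also: growth inhibition of COR-L88 cells, read out with a cell viability assay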
Description: SANGER: Inhibition of human COR-L88 cell growth in a cell viability assay.

SK-MEL-2 = type: functional, cell-based, Homo sapiens; details: Homo sapiens, SK-MEL-2;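 also: growth inhibition of human SK-MEL-2 cells measured with a cell viability assay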
Description: SANGER: Inhibition of human SK-MEL-2 cell growth in a cell viability assay.

TE-12 = type: functional, cell-based, Homo sapiens; details: Homo sapiens, TE-12;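 also: growth inhibition of TE-12 cells, read out by a cell viability assay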
Description: SANGER: Inhibition of human TE-12 cell growth in a cell viability assay.

A253 cell line = type: functional, cell-based, Homo sapiens; details: Homo sapiens, A253;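 also: growth inhibition of A253 cells, read out with a cell viability assay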
Description: SANGER: Inhibition of human A253 cell growth in a cell viability assay.

NCI-H1092 = type: functional, cell-based, Homo sapiens; details: Homo sapiens, NCI-H1092;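 also: cell growth inhibition measured with a cell viability assay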
Description: SANGER: Inhibition of human NCI-H1092 cell growth in a cell viability assay.

DJM-1 = type: functional, cell-based, Homo sapiens; details: Homo sapiens, DJM-1;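 also: growth inhibition of human DJM-1 cells, read out by a cell viability assay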
Description: SANGER: Inhibition of human DJM-1 cell growth in a cell viability assay.

Calu-6 = type: functional, cell-based, Homo sapiens; details: Homo sapiens, Calu-6;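 also: growth of human Calu-6 cells, read out by a cell viability assay, IC50 marking inhibition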
Description: SANGER: Inhibition of human Calu-6 cell growth in a cell viability assay.

NCI-H1770 = type: functional, cell-based, Homo sapiens; details: Homo sapiens, NCI-H1770;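 also: growth inhibition of NCI-H1770 cells determined with a viability readout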
Description: SANGER: Inhibition of human NCI-H1770 cell growth in a cell viability assay.

NCI-H446 = type: functional, cell-based, Homo sapiens; details: Homo sapiens, NCI-H446;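 also: growth inhibition of NCI-H446 cells determined by a cell viability assay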
Description: SANGER: Inhibition of human NCI-H446 cell growth in a cell viability assay.

CGTH-W-1 = type: functional, cell-based, Homo sapiens; details: Homo sapiens, CGTH-W-1;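 also: growth inhibition of human CGTH-W-1 cells measured by cell viability assay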
Description: SANGER: Inhibition of human CGTH-W-1 cell growth in a cell viability assay.

NCI-H1395 = type: functional, cell-based, Homo sapiens; details: Homo sapiens, NCI-H1395;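 also: cell viability assay read-out quantifying reduced proliferation of human NCI-H1395 cells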
Description: SANGER: Inhibition of human NCI-H1395 cell growth in a cell viability assay.

ACN = type: functional, cell-based, Homo sapiens; details: Homo sapiens, ACN;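 also: growth inhibition of the human ACN cell line, read out via cell viability testing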
Description: SANGER: Inhibition of human ACN cell growth in a cell viability assay.

BE-13 = type: functional, cell-based, Homo sapiens; details: Homo sapiens, BE-13;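 also: growth inhibition of human BE-13 cells, measured with a cell viability assay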
Description: SANGER: Inhibition of human BE-13 cell growth in a cell viability assay.

HEL = type: functional, cell-based, Homo sapiens; details: Homo sapiens, HEL;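 also: growth inhibition of HEL cells, read out with a cell viability assay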
Description: SANGER: Inhibition of human HEL cell growth in a cell viability assay.

MHH-NB-11 = type: functional, cell-based, Homo sapiens; details: Homo sapiens, MHH-NB-11;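 also: growth inhibition of human MHH-NB-11 cells, read out by a cell viability assay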
Description: SANGER: Inhibition of human MHH-NB-11 cell growth in a cell viability assay.

SW 954 = type: functional, cell-based, Homo sapiens; details: Homo sapiens, SW 954;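 also: growth inhibition of SW954 human cancer cells, read out as cell viability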
Description: SANGER: Inhibition of human SW954 cell growth in a cell viability assay.

BT-474 = type: functional, cell-based, Homo sapiens; details: Homo sapiens, BT-474
Description: SANGER: Inhibition of human BT-474 cell growth in a cell viability assay.

OMC-1 = type: functional, cell-based, Homo sapiens; details: Homo sapiens, OMC-1;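 also: growth inhibition of the OMC-1 cell line, measured by a cell viability assay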
Description: SANGER: Inhibition of human OMC-1 cell growth in a cell viability assay.

NCI-H226 = type: functional, cell-based, Homo sapiens; details: Homo sapiens, NCI-H226;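 also: cell viability read-out used to gauge growth inhibition of the cells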
Description: SANGER: Inhibition of human NCI-H226 cell growth in a cell viability assay.

EW-13 = type: functional, cell-based, Homo sapiens; details: Homo sapiens, EW-13; read-out: IC50;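 also: growth inhibition of EW-13 cells, read out with a cell viability assay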
Description: SANGER: Inhibition of human EW-13 cell growth in a cell viability assay.

NCI-H2126 = type: functional, cell-based, Homo sapiens; details: Homo sapiens, NCI-H2126;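 also: growth inhibition of the cancer cell line, determined with a cell viability readout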
Description: SANGER: Inhibition of human NCI-H2126 cell growth in a cell viability assay.

K562 = type: functional, cell-based, Homo sapiens; details: Homo sapiens, K562
Description: SANGER: Inhibition of human K-562 cell growth in a cell viability assay.

TE-8 = type: functional, cell-based, Homo sapiens; details: Homo sapiens, TE-8;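 also: growth inhibition of TE-8 cells, measured with a cell viability readout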
Description: SANGER: Inhibition of human TE-8 cell growth in a cell viability assay.

U-266 = type: functional, cell-based, Homo sapiens; details: Homo sapiens, U-266
Description: SANGER: Inhibition of human U-266 cell growth in a cell viability assay.

NB5 = type: functional, cell-based, Homo sapiens; details: Homo sapiens, NB5;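 also: growth inhibition of NB5 cells, read out as cell viability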
Description: SANGER: Inhibition of human NB5 cell growth in a cell viability assay.

SK-N-DZ = type: functional, cell-based, Homo sapiens; details: Homo sapiens, SK-N-DZ; read-out: IC50;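 also: growth inhibition of the cancer cell line, read out through a viability assay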
Description: SANGER: Inhibition of human SK-N-DZ cell growth in a cell viability assay.

MPP-89 = type: functional, cell-based, Homo sapiens; details: Homo sapiens, MPP-89;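 also: growth inhibition of human MPP-89 cells, read out with a cell viability assay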
Description: SANGER: Inhibition of human MPP-89 cell growth in a cell viability assay.

SK-LMS-1 = type: functional, cell-based, Homo sapiens; details: Homo sapiens, SK-LMS-1;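 also: growth inhibition of human SK-LMS-1 cells, read out with a cell viability assay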
Description: SANGER: Inhibition of human SK-LMS-1 cell growth in a cell viability assay.

MOLT-4 = type: functional, cell-based, Homo sapiens; details: Homo sapiens, MOLT-4;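 also: growth inhibition of MOLT-4 cells, determined with a cell viability readout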
Description: SANGER: Inhibition of human MOLT-4 cell growth in a cell viability assay.

EW-3 = type: functional, cell-based, Homo sapiens; details: Homo sapiens, EW-3;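 also: cell viability assay read-out, IC50 reflects inhibition of growth of the EW-3 cells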
Description: SANGER: Inhibition of human EW-3 cell growth in a cell viability assay.

ALL-PO = type: functional, cell-based, Homo sapiens; details: Homo sapiens, ALL-PO;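 also: growth inhibition of ALL-PO cells, read out by a cell viability assay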
Description: SANGER: Inhibition of human ALL-PO cell growth in a cell viability assay.

NCI-H720 = type: functional, cell-based, Homo sapiens; details: Homo sapiens, NCI-H720;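 also: growth inhibition of human NCI-H720 cells determined by a cell viability assay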
Description: SANGER: Inhibition of human NCI-H720 cell growth in a cell viability assay.

MV4-11 = type: functional, cell-based, Homo sapiens, MV-4-11; details: Homo sapiens, MV4-11;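 also: cell viability readout measuring growth inhibition of human MV-4-11 cells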
Description: SANGER: Inhibition of human MV-4-11 cell growth in a cell viability assay.

VA-ES-BJ = type: functional, cell-based, Homo sapiens; details: Homo sapiens, VA-ES-BJ;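 also: growth inhibition of the VA-ES-BJ cell line, read out by a cell viability assay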
Description: SANGER: Inhibition of human VA-ES-BJ cell growth in a cell viability assay.

KALS-1 = type: functional, cell-based, Homo sapiens; details: Homo sapiens, KALS-1; read-out: IC50;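 also: growth inhibition of KALS-1 cells, determined with a cell viability assay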
Description: SANGER: Inhibition of human KALS-1 cell growth in a cell viability assay.

RXF 393 = type: functional, cell-based, Homo sapiens; details: Homo sapiens, RXF 393;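 also: growth inhibition of human RXF 393 cells, read out with a cell viability assay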
Description: SANGER: Inhibition of human RXF393 cell growth in a cell viability assay.

ES1 = type: functional, cell-based, Homo sapiens; details: Homo sapiens, ES1;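 also: growth inhibition of ES1 cells, read out with a cell viability assay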
Description: SANGER: Inhibition of human ES1 cell growth in a cell viability assay.

GCIY = type: functional, cell-based, Homo sapiens; details: Homo sapiens, GCIY;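 also: growth inhibition of the human GCIY cell line, read out by a cell viability assay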
Description: SANGER: Inhibition of human GCIY cell growth in a cell viability assay.

NCI-H1355 = type: functional, cell-based, Homo sapiens; details: Homo sapiens, NCI-H1355;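 also: growth inhibition of human NCI-H1355 cells, read out by a cell viability assay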
Description: SANGER: Inhibition of human NCI-H1355 cell growth in a cell viability assay.

GI-ME-N = type: functional, cell-based, Homo sapiens; details: Homo sapiens, GI-ME-N;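 also: growth inhibition of human GI-ME-N cells, read out with a cell viability assay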
Description: SANGER: Inhibition of human GI-ME-N cell growth in a cell viability assay.

HCE-4 = type: functional, cell-based; details: Homo sapiens;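 also: cell viability assay measuring inhibition of growth in the human HCE-4 cell line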
Description: SANGER: Inhibition of human HCE-4 cell growth in a cell viability assay.

IA-LM = type: functional, cell-based; details: Homo sapiens;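 also: cell viability assay measuring growth inhibition of human IA-LM cells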
Description: SANGER: Inhibition of human IA-LM cell growth in a cell viability assay.

**Q.** With `CC(C)C[C@H](NC(=O)[C@H](Cc1ccccc1)NC(=O)c1cnccn1)B(O)O` [BORTEZOMIB] as the compound, how does the IC50 (LOX IMVI) read?
**A.** 3.5 nM

**Q.** And the IC50 (IST-SL1)?
**A.** 4.68 nM

**Q.** What about the IC50 (HCC1187) of the same compound?
**A.** 3.54 nM

**Q.** What about the IC50 (NB10) of the same compound?
**A.** 2.32 nM

**Q.** And the IC50 (NCI-H1648)?
**A.** 4.13 nM

**Q.** And the IC50 (MN-60)?
**A.** 8.14 nM

**Q.** And the IC50 (P30-OHK)?
**A.** > 20 nM

**Q.** What about the IC50 (COR-L88) of the same compound?
**A.** 3.47 nM

**Q.** And the IC50 (SK-MEL-2)?
**A.** > 20 nM

**Q.** What about the IC50 (TE-12) of the same compound?
**A.** 4.25 nM

**Q.** And the IC50 (A253 cell line)?
**A.** 0.208 nM

**Q.** And the IC50 (NCI-H1092)?
**A.** 1.8 nM

**Q.** What about the IC50 (DJM-1) of the same compound?
**A.** 3.63 nM

**Q.** What about the IC50 (Calu-6) of the same compound?
**A.** 1.29 nM

**Q.** What about the IC50 (NCI-H1770) of the same compound?
**A.** > 20 nM

**Q.** And the IC50 (NCI-H446)?
**A.** > 20 nM

**Q.** What about the IC50 (CGTH-W-1) of the same compound?
**A.** 3.1 nM

**Q.** And the IC50 (NCI-H1395)?
**A.** > 20 nM

**Q.** What about the IC50 (ACN) of the same compound?
**A.** 0.417 nM

**Q.** And the IC50 (BE-13)?
**A.** 1.93 nM

**Q.** And the IC50 (HEL)?
**A.** 1.61 nM

**Q.** And the IC50 (MHH-NB-11)?
**A.** 4.91 nM

**Q.** And the IC50 (SW 954)?
**A.** 2.9 nM

**Q.** And the IC50 (BT-474)?
**A.** > 20 nM

**Q.** And the IC50 (OMC-1)?
**A.** 4.18 nM

**Q.** And the IC50 (NCI-H226)?
**A.** > 20 nM

**Q.** And the IC50 (EW-13)?
**A.** > 20 nM

**Q.** And the IC50 (NCI-H2126)?
**A.** 1.8 nM

**Q.** And the IC50 (K562)?
**A.** 4.12 nM

**Q.** And the IC50 (TE-8)?
**A.** 1.19 nM

**Q.** What about the IC50 (U-266) of the same compound?
**A.** 1.76 nM

**Q.** What about the IC50 (NB5) of the same compound?
**A.** 2.27 nM

**Q.** What about the IC50 (SK-N-DZ) of the same compound?
**A.** 3.26 nM

**Q.** What about the IC50 (MPP-89) of the same compound?
**A.** 1.89 nM

**Q.** And the IC50 (SK-LMS-1)?
**A.** 0.854 nM

**Q.** What about the IC50 (MOLT-4) of the same compound?
**A.** 2.13 nM

**Q.** What about the IC50 (EW-3) of the same compound?
**A.** > 20 nM

**Q.** And the IC50 (ALL-PO)?
**A.** > 20 nM

**Q.** What about the IC50 (NCI-H720) of the same compound?
**A.** > 20 nM

**Q.** And the IC50 (MV4-11)?
**A.** 1.82 nM

**Q.** What about the IC50 (VA-ES-BJ) of the same compound?
**A.** 1.09 nM

**Q.** What about the IC50 (KALS-1) of the same compound?
**A.** 0.925 nM

**Q.** And the IC50 (RXF 393)?
**A.** 0.914 nM

**Q.** What about the IC50 (ES1) of the same compound?
**A.** 0.43 nM

**Q.** What about the IC50 (GCIY) of the same compound?
**A.** 1.62 nM

**Q.** And the IC50 (NCI-H1355)?
**A.** 0.895 nM

**Q.** And the IC50 (GI-ME-N)?
**A.** 0.634 nM

**Q.** How did the IC50 (LOX IMVI) turn out when `CN(NC(=O)CC(=O)NN(C)C(=S)c1ccccc1)C(=S)c1ccccc1` [ELESCLOMOL] was run?
**A.** 171 nM

**Q.** What about the IC50 (IST-SL1) of the same compound?
**A.** 52.3 nM

**Q.** What about the IC50 (HCC1187) of the same compound?
**A.** 79.3 nM

**Q.** What about the IC50 (NB10) of the same compound?
**A.** 15.2 nM

**Q.** What about the IC50 (NCI-H1648) of the same compound?
**A.** > 200 nM

**Q.** What about the IC50 (MN-60) of the same compound?
**A.** 14.3 nM

**Q.** What about the IC50 (HCE-4) of the same compound?
**A.** 59.1 nM

**Q.** What about the IC50 (P30-OHK) of the same compound?
**A.** > 200 nM

**Q.** What about the IC50 (COR-L88) of the same compound?
**A.** > 200 nM

**Q.** What about the IC50 (SK-MEL-2) of the same compound?
**A.** 73.2 nM

**Q.** And the IC50 (TE-12)?
**A.** > 200 nM

**Q.** And the IC50 (NCI-H1092)?
**A.** 90.1 nM

**Q.** And the IC50 (DJM-1)?
**A.** 54.3 nM

**Q.** What about the IC50 (Calu-6) of the same compound?
**A.** > 200 nM

**Q.** What about the IC50 (NCI-H1770) of the same compound?
**A.** > 200 nM

**Q.** What about the IC50 (NCI-H446) of the same compound?
**A.** 90.1 nM

**Q.** What about the IC50 (CGTH-W-1) of the same compound?
**A.** 11 nM

**Q.** What about the IC50 (NCI-H1395) of the same compound?
**A.** 13.6 nM

**Q.** And the IC50 (ACN)?
**A.** 11.7 nM

**Q.** And the IC50 (BE-13)?
**A.** > 200 nM

**Q.** And the IC50 (HEL)?
**A.** 7.08 nM

**Q.** And the IC50 (MHH-NB-11)?
**A.** 69.1 nM

**Q.** What about the IC50 (SW 954) of the same compound?
**A.** 14.2 nM

**Q.** And the IC50 (BT-474)?
**A.** 19.2 nM

**Q.** What about the IC50 (OMC-1) of the same compound?
**A.** 77.1 nM

**Q.** And the IC50 (NCI-H226)?
**A.** 131 nM

**Q.** What about the IC50 (EW-13) of the same compound?
**A.** 19.8 nM

**Q.** What about the IC50 (NCI-H2126) of the same compound?
**A.** 16.3 nM

**Q.** What about the IC50 (K562) of the same compound?
**A.** > 200 nM

**Q.** And the IC50 (TE-8)?
**A.** 5.41 nM

**Q.** And the IC50 (IA-LM)?
**A.** 84.4 nM

**Q.** And the IC50 (U-266)?
**A.** 15.8 nM

**Q.** And the IC50 (NB5)?
**A.** 30.7 nM

**Q.** And the IC50 (SK-N-DZ)?
**A.** 189 nM

**Q.** What about the IC50 (MPP-89) of the same compound?
**A.** 9.13 nM

**Q.** And the IC50 (SK-LMS-1)?
**A.** > 200 nM

**Q.** What about the IC50 (MOLT-4) of the same compound?
**A.** 105 nM

**Q.** What about the IC50 (EW-3) of the same compound?
**A.** 39.9 nM

**Q.** And the IC50 (ALL-PO)?
**A.** > 200 nM

**Q.** And the IC50 (NCI-H720)?
**A.** 124 nM

**Q.** And the IC50 (MV4-11)?
**A.** 18 nM

**Q.** And the IC50 (VA-ES-BJ)?
**A.** 7.64 nM

**Q.** What about the IC50 (KALS-1) of the same compound?
**A.** 96.3 nM

**Q.** And the IC50 (RXF 393)?
**A.** 13.4 nM

**Q.** And the IC50 (ES1)?
**A.** 0.749 nM

**Q.** And the IC50 (GCIY)?
**A.** > 200 nM

**Q.** What about the IC50 (NCI-H1355) of the same compound?
**A.** 8.89 nM

**Q.** What about the IC50 (GI-ME-N) of the same compound?
**A.** > 200 nM

— ChEMBL document CHEMBL1201861, “Genomics of Drug Sensitity in Cancer screening data, Wellcome Trust Sanger Institute”
